Test results taken from patent publication US20210179561A1, “ACID ADDITION SALTS OF APOMORPHINE, PHARMACEUTICAL COMPOSITIONS CONTAINING THE SAME, AND METHODS OF USING THE SAME” (Sunovion Pharmaceuticals Inc., priority 2018, published 2021).
Structures can show the parent of a compound that is named as a salt.

What was measured:
[1] = physchem; conditions: water
[2] = Intrinsic dissolution (Wood's apparatus, HPLC) in pH 4.5 acetate buffer or artificial saliva; conditions: for dissolution rates compared with apomorphine glycolate and apomorphine sulfamate: in words
Protocol: Samples were quantitated using HPLC.
Dissolution experiments were performed using a VanKel VK7010 dissolution tester equipped with a VK750D heater/circulator. […] Approximately 150 mg of acid addition salt of apomorphine salt were compressed with an applied load of approximately 1000 pounds for 1 minute in the Wood's apparatus using a hydraulic press. The dissolution medium was either pH 4.5 acetate buffer or artificial saliva. The medium (900 mL) was equilibrated to 37° C.±0.5° C. and degassed by sparging with helium for ca. 2 minutes at the start of each experiment. The disks were rotated at 75 rpm. Sampling of 1 mL aliquots was performed at the given timepoints using a 10 mL syringe equipped with a stainless steel cannula.
The sample aliquots were analyzed by HPLC for acid addition salt of apomorphine content. HPLC analyses were performed using an Agilent 1100 series liquid chromatograph equipped with a diode array or variable wavelength detector, degasser, quaternary pump, and an autosampler. The chromatographic column was a 4.6×50 mm Luna C18(2) column with 5 μm packing (Phenomenex). The column temperature was set to 25.0° C., and the detector wavelength was 274 nm. The autosampler temperature was set to 5.0° C. The injection volume was 25.0 μL. Mobile phase was 80:20 0.2% trifluoroacetic acid:acetonitrile.
Intrinsic dissolution experiments were conducted in duplicate for apomorphine hydrochloride salt in pH 4.5 acetate buffer and artificial saliva. Aliquots (1 mL) were drawn from the dissolution vessel at time intervals indicated in Table 6, transferred to an HPLC vial, and the dissolution values (mass per unit area) of the apomorphine salt was determined for each aliquot (see Table 6). The determined dissolution values were plotted against the time intervals, and the slope of the linear curve was determined. This slope corresponds to the calculated intrinsic dissolution rate (IDR) for the apomorphine salt.

[3] = Dynamic vapor sorption/desorption (DVS); assay type: physicochemical; conditions: for DVS weight change at 5% equilibration: 5% RH equilibration; for DVS weight loss from 95 to 5% RH: desorption 95 to 5% RH; for DVS weight gain from 5 to 95% RH: sorption 5 to 95% RH
Protocol: Dynamic vapor sorption (DVS) data were collected on a VTI SGA-100 Vapor Sorption Analyzer. NaCl and PVP were used as calibration standards. Samples were not dried prior to analysis. Sorption and desorption data were collected over a range from 5% to 95% RH at 10% RH increments under a nitrogen purge. The equilibrium criterion used for analysis was less than 0.0100% weight change in 5 minutes with a maximum equilibration time of 3 hours. Data were not corrected for the initial moisture content of the samples.

[4] = solution from aqueous solubility test
[5] = Approximate aqueous solubility of apomorphine salts; conditions: water
[6] = Artificial saliva, 37° C., Table 5 (mean of two tests except glycolate)
[7] = pH 4.5 acetate buffer, 37° C., Table 5 (mean of two tests except glycolate)

| Compound | IDR [2, 6] [mg/cm^2/min] | dissolution rates compared with apomorphine glycolate and apomorphine sulfamate [2] | IDR [2, 7] [mg/cm^2/min] | DVS weight change at 5% equilibration [3] [%] | DVS weight loss from 95 to 5% RH [3] [%] | DVS weight gain from 5 to 95% RH [3] [%] | Approximate Aqueous Solubility [5] [mg/mL] | further results |
| --- | --- | --- | --- | --- | --- | --- | --- | --- |
| CN1CCc2cccc3c2[C@H]1Cc1ccc(O)c(O)c1-3 [Hydrochloride, apomorphine hydrochloride, reference compound] | 0.582 | significantly lower | 2.643 |  |  |  |  | solubility [1]: ~21 mg/mL |
| CC(C)C(=O)O.CN1CCc2cccc3c2C1Cc1ccc(O)c(O)c1-3 (stereo not shown) [Isobutyrate, apomorphine isobutyrate] | 0.305 | significantly lower | 1.576 | 0.0 | 0.2 | 0.1 |  |  |
| apomorphine glutarate |  |  |  |  |  |  | 3 | Approximate pH of Aqueous Solution [4]: 6 |
| apomorphine glycolate | 10.862 |  | 34.775 | 0.0 | 0.5 | 0.5 |  | Dissolution in pH 4.5 Acetate Buffer ([2]; 1 min, single experiment): 14.548 mg/cm^2; Dissolution in Artificial Saliva ([2]; 3 min, single experiment): 42.192 mg/cm^2; Dissolution in pH 4.5 Acetate Buffer ([2]; 3 min, single experiment): 38.801 mg/cm^2; Dissolution in Artificial Saliva ([2]; 3.5 min, single experiment): 47.686 mg/cm^2; Dissolution in pH 4.5 Acetate Buffer ([2]; 3.5 min, single experiment): 51.432 mg/cm^2; Dissolution in Artificial Saliva ([2]; 4 min, single experiment): 53.878 mg/cm^2; Dissolution in pH 4.5 Acetate Buffer ([2]; 4 min, single experiment): 72.492 mg/cm^2; Dissolution in Artificial Saliva ([2]; 4.5 min, single experiment): 58.232 mg/cm^2; Dissolution in pH 4.5 Acetate Buffer ([2]; 4.5 min, single experiment): 89.739 mg/cm^2; IDR ([2]; artificial saliva, single experiment): 10.862 mg/cm^2/min; IDR ([2]; pH 4.5 acetate buffer, single experiment): 34.775 mg/cm^2/min |
| apomorphine methylbenzoate |  |  |  |  |  |  | <1 |  |
| apomorphine sulfamate | 16.873 |  | 19.598 | 0.0 | 25.4 |  |  | DVS weight gain from 5 to 85% RH ([3]; sorption 5 to 85% RH): 1.0% |
